Read-outs that look alike come from different tables or passages of the source.
Key:
[1] = tested on: CBRs expressed in DU-145 membranes; assay type: binding, human
Description: (§1) The assay was conducted as previously detailed. […] All binding reactions were conducted in triplicate, in a final volume of 1 mL, and, following mixing, were incubated for 20 min in a 37 °C water bath to achieve equilibrium. After incubation, reactions were terminated by rapid vacuum filtration through Whatman GF/B glass fiber filters (Brandel; Gaithersburg, MD, USA), followed by three washes of 4 mls of ice-cold filtration buffer (50 mM Tris, pH 7.4, and 0.05% bovine serum albumin). Samples were punched out from filter papers into scintillation vials, to which 4 mls of ScintiverseTM-BDR cocktail scintillation fluid (Fisher Scientific; Hampton, NH, USA) was added. Filters were incubated at room temperature for 24 h in scintillation fluid, vortexed, and radioactivity (measured as DPMs) was quantified via a liquid scintillation spectrophotometer (Tri Carb 2100 TR Liquid Scintillation Analyzer, Packard Instruments, Meriden, CT, USA).
(§2) These experiments were conducted to screen well-characterized cannabinoid ligands with high affinity for canonical CB1 and/or CB2Rs for binding to CBRs expressed in prostate cancer cells lines, as detailed in [33]. […] All binding reactions were conducted in triplicate, in a final volume of 1 mL, and, following mixing, were incubated for 20 min in a 37 °C water bath to achieve equilibrium. After incubation, reactions were terminated by rapid vacuum filtration and processed for radioactivity, as detailed in Section 4.5.1.

[2] = tested on: CBRs expressed in PC-3 membranes; test: [^3H]WIN-55,212-2 competitive binding screen, PC-3 membranes; design: species or system human
Description: as §1, §2

[3] = tested on: CBRs expressed in PC-3 membranes; test: [^35S]GTPγS binding, PC-3 membranes; assay type: biochemical, human; details: 10 μM
Description: [^35S]GTPγS binding experiments were conducted to examine G protein modulation by cannabinoids in prostate cancer cell lines DU-145 and PC-3, as detailed previously. Briefly, CHO-hCB2 (50 μg), PC3 (100 μg), or DU-145 (100 μg) membrane homogenates were incubated with a single receptor-saturating concentration (10^−5 M) of cannabinoid ligands to be examined and 0.1 nM [^35S]GTPγS in incubation buffer (20 mM HEPES buffer, pH 7.4, 10 μM GDP, 100 mM NaCl, 0.1% bovine serum albumin, and 10 mM MgCl2). Non-specific binding was defined as radioactivity remaining in the presence of 10 μM of non-radioactive GTPγS and subtracted from total binding to determine specific [^35S]GTPγS binding. All binding reactions were conducted in triplicate, in a final volume of 1 mL, and, following mixing, were incubated for 30 min at 30 °C. After incubation, reactions were terminated by rapid vacuum filtration through Whatman GF/B glass fiber filters (Brandel; Gaithersburg, MD, USA), followed by three washes of 4 mls of ice-cold filtration buffer (50 mM Tris, pH 7.4, and 0.05% bovine serum albumin). Samples were punched out from filter papers into scintillation vials, to which 4 mls of ScintiverseTM-BDR cocktail scintillation fluid (Fisher Scientific; Hampton, NH, USA) was added. Filters were incubated at room temperature for 24 h in scintillation fluid, vortexed, and radioactivity (measured as DPMs) was determined via a liquid scintillation spectrophotometer (Tri Carb 2100 TR Liquid Scintillation Analyzer, Packard Instruments, Meriden, CT, USA).

[4] = tested on: CBRs expressed in DU-145 membranes; assay type: biochemical, human; details: 10 μM
Description: Non-specific binding was defined as radioactivity remaining in the presence of 10 μM of non-radioactive GTPγS and subtracted from total binding to determine specific [^35S]GTPγS binding. All binding reactions were conducted in triplicate, in a final volume of 1 mL, and, following mixing, were incubated for 30 min at 30 °C. After incubation, reactions were terminated by rapid vacuum filtration through Whatman GF/B glass fiber filters (Brandel; Gaithersburg, MD, USA), followed by three washes of 4 mls of ice-cold filtration buffer (50 mM Tris, pH 7.4, and 0.05% bovine serum albumin). Samples were punched out from filter papers into scintillation vials, to which 4 mls of ScintiverseTM-BDR cocktail scintillation fluid (Fisher Scientific; Hampton, NH, USA) was added. Filters were incubated at room temperature for 24 h in scintillation fluid, vortexed, and radioactivity (measured as DPMs) was determined via a liquid scintillation spectrophotometer (Tri Carb 2100 TR Liquid Scintillation Analyzer, Packard Instruments, Meriden, CT, USA).

DU-145 cells [5] = test: ATP-dependent cell viability, DU-145 cells; assay type: cell-based, human; details: co-incubation with 10 μM ligand, 24 h
Description: Adenosine 5′-triphosphate (ATP) levels were quantified as a measure of DU-145 cell viability in response to cannabinoid treatement using an ATP-luciferase-based bioluminescence assay kit (CellTiter-Glo®, Sigma, MO, USA) and BioTek microplate reader (Winooski, VT, USA). DU-145 cells were seeded at a density of 8 × 10^3 cells/well in a 96-well plate and incubated for 24 h at 37 °C with 5% CO2. The next day, cells were treated with either vehicle or experimental drugs (10 or 50 μM) and incubated for another 24 h at 37 °C with 5% CO2. ATP levels were assessed following incubation by interpolation from an ATP standard curve according to the manufacturer’s protocol, as described previously.

DU-145 cells [6] = test: Mitochondrial membrane potential (JC-1 staining), DU-145 cells; assay type: cell-based, human; details: 24 h
DU-145 cells [7] = test: LDH cytotoxicity, DU-145 cells; assay type: cell-based, human; details: 500 nM, 24 h
Description: DU-145 cells were seeded at a density of 130 × 10^3 cells/well in 6-well plates and maintained in an incubator at 37 °C with 5% CO2 for 24 h. […] Treated cells were incubated for an additional 24 h, followed by quantification of LDH release. LDH released from damaged or dying cells oxidizes lactate to produce NADH which then reacts with a water-soluble tetrazolium salt (WST) reagent to produce a yellow-colored product. The intensity of the yellow-colored product was detected with an OD reading at 450 nm (quantified by a BioTek microplate reader interfaced with SoftMax Pro 5.4.5 software; Winooski, VT, USA) and was directly proportional to the amount of LDH released. Percent cytotoxicity was calculated according to the manufacturer’s protocol as the following: % Cytotoxicity=OD450 Supernatant/Supernatant+Lysate

[8] = 1 μM ligand, 1 nM radioligand, PC-3 membranes

| Structure (SMILES) | displacement of [^3H]WIN-55,212-2 [1] | displacement of [^3H]WIN-55,212-2 [2, 8] | further results |
| --- | --- | --- | --- |
| C=C(C)[C@@H]1CCC(C)=C[C@H]1c1c(O)cc(CCCCC)cc1O [CBD, cannabidiol] | failed to displace | failed to displace |  |
| CC(C)[C@H](NC(=O)c1nn(CCCCCF)c2ccccc12)C(N)=O [5F-AB-PINACA] | failed to displace | failed to displace |  |
| O=C(Oc1cccc2ccccc12)c1cn(Cc2ccc(F)cc2)c2ccccc12 [FDU-PB-22] | failed to displace | failed to displace |  |
| CCCCCCCC/C=C\CCCCCCCC(=O)N[C@H](C(=O)O)C(C)C [N-oleoyl-valine] | 15 ± 2.7% |  |  |
| Cc1c(C(=O)c2cccc3ccccc23)c2cccc3c2n1[C@@H](CN1CCOCC1)CO3 [WIN-55,212-3] | 13.9 ± 2.7% |  | displacement of [^3H]WIN-55,212-2 [2]: 20.7 ± 10.3% |
| OCCOc1ccc(/C(=C(/CCCl)c2ccccc2)c2ccccc2)cc1 [OSP, ospemifene] | failed to displace |  | displacement of [^3H]WIN-55,212-2 [2]: failed to displace |
| COc1ccc2c(c1)CCC(c1ccccc1)=C2c1ccc(OCCN2CCCC2)cc1 [nafoxidine] | produced significant (but less) displacement | produced significant (but less) displacement | modulation of [^35S]GTPγS binding [3]: had no effect on G protein activity; modulation of [^35S]GTPγS binding [4]: had no effect on G protein activity |
| COc1cc(CNC(=O)CCCC/C=C/C(C)C)ccc1O [capsaicin] | Neither the high affinity TRPV1 ligands capsaicin [38], PDDHV [39], and CAY-100448 [40] nor the TRPA1 ligand HC-030031 [41] produced significant displacement |  |  |
| O=C(NC12CC3CC(CC(C3)C1)C2)c1nn(CCCCCF)c2ccccc12 [5F-AKB48] | failed to displace |  | displacement of [^3H]WIN-55,212-2 [2]: failed to displace |
| Cc1c(C(=O)Nc2cccc(C(F)(F)F)c2)cc(-c2ccccc2)n1CCCN1CCOCC1 [HC-067047] | 22 ± 3.8% |  |  |
| Cc1c(C(=O)NN2CCCCC2)nn(-c2ccc(Cl)cc2Cl)c1-c1ccc(I)cc1 [AM-251] |  |  | attenuation of GW-405833 (50 μM)-induced reduction in ATP concentrations (DU-145 cells [5]): significantly attenuated reductions in ATP concentrations produced by GW-405833; MMP on co-incubation with GW-405833 (10 μM) (DU-145 cells [6]; 10 μM ligand co-incubated): MMP was not significantly reduced from vehicle-treated levels |
| CCCCCCCCCC(=O)O[C@@H]1[C@@H](C)[C@@]2(O)[C@@H](C=C(COC(=O)Cc3ccc(O)c(OC)c3)C[C@]3(O)C(=O)C(C)=C[C@@H]23)[C@@H]2C(C)(C)[C@]12OC(=O)CCCCCCCCC [PDDHV] | Neither the high affinity TRPV1 ligands capsaicin [38], PDDHV [39], and CAY-100448 [40] nor the TRPA1 ligand HC-030031 [41] produced significant displacement |  |  |
| Cc1ccc(C(=O)c2cn(CCCCCF)c3ccccc23)c2ccccc12 [MAM-2201] | failed to displace | failed to displace |  |
| CCCCCc1cc(O)c2c(c1)OC(C)(C)[C@@H]1CCC(C)=C[C@@H]21 [THC, Δ^9-tetrahydrocannabinol] | failed to displace | failed to displace |  |
| CCCCC/C=C\C/C=C\C/C=C\C/C=C\CCCC(=O)NCCCl [ACEA] | failed to displace |  | displacement of [^3H]WIN-55,212-2 [2]: failed to displace |
| CC(C)c1ccc(NC(=O)Cn2cnc3c2c(=O)n(C)c(=O)n3C)cc1 [HC-030031] | Neither the high affinity TRPV1 ligands capsaicin [38], PDDHV [39], and CAY-100448 [40] nor the TRPA1 ligand HC-030031 [41] produced significant displacement |  |  |
| CC(=O)O[C@@]12CO[C@@H]1C[C@H](O)[C@@]1(C)C(=O)[C@H](O)C3=C(C)[C@@H](OC(=O)[C@H](O)[C@@H](NC(=O)OC(C)(C)C)c4ccccc4)C[C@@](O)([C@@H](OC(=O)c4ccccc4)[C@H]21)C3(C)C [docetaxel] |  |  | mitochondrial membrane potential (MMP) depolarization (DU-145 cells [6]; 500 nM, JC-1): induced significant mitochondrial membrane depolarization; increase in LDH release (DU-145 cells [7]): 16.8 ± 3.4% |

— publication PMC8954350, “Non-Canonical Cannabinoid Receptors with Distinct Binding and Signaling Properties in Prostate and Other Cancer Cell Types Mediate Cell Death” (International Journal of Molecular Sciences, 2022)
